Experiments:
[1] = tested on: atrial natriuretic factor (ANF) mRNA; assay: ANF mRNA dot blot in primary cardiomyocytes treated with AngII; type: cell-based, rat; conditions: AngII exposure
Description: A-F, Primary rat cardiocytes in serum-free medium were stimulated with AngII (10 nM) or PE (10 μm) for 72 hours. Cells were then fixed and stained with anti-α-actinin antibody to reveal sarcomeres and Hoechst stain to reveal nuclei. […] G, Total RNA was isolated from primary cardiocyte cultures treated with AngII in the presence or absence of CsA as in A and analyzed for expression of GAPDH and ANF transcripts by dot blot. H, Primary rat cardiomyocytes were transiently transfected with a luciferase reporter gene linked to 3 tandem copies of the NF-AT consensus binding site. Cells were then treated with AngII or PE in the presence or absence of CsA, as described above. Forty-eight hours later, cells were harvested and luciferase activity was determined.
To determine whether changes in cardiomyocyte gene expression in response to AngII were also controlled by a calcineurin-dependent signaling pathway, the expression of ANF mRNA in cardiomyocytes treated with AngII was examined in the presence and absence of CsA by a dot blot assay. […] GAPDH mRNA was measured as a control.
RNA analysis. Total RNA was collected and purified with Triazol reagent (Gibco BRL) as recommended. […]

[2] = tested on: neonatal rat cardiomyocytes; assay: AngII- and PE-induced hypertrophy of primary cardiomyocytes (anti-α-actinin staining, cell size and sarcomeric assembly); type: cell-based; conditions: 72 hr; AngII 10 nM or PE 10 μM
Description: To visualize primary cardiomyocytes and their sarcomeric organization, anti-α-actinin mouse monoclonal antibody was used (Sigma). […] Cells were washed in 1×phosphate-buffered saline (PBS), fixed in 3.7% paraformaldehyde for 5 minutes, washed three times with 1×PBS and then pre-blocked in 1×PBS containing 2% horse serum, 2% BSA, and 0.1% non-ionic detergent NP40 for 30 minutes. Anti-α-actinin antibody was added at a dilution of 1:800 in fresh preblock solution and incubated for an additional 30 minutes. Subsequently, the cells were washed three times in 1×PBS with 0.1% NP40. Anti-mouse TRITC-conjugated secondary antibody was then added at a dilution of 1:400 for 30 minutes in pre-block solution and the cells were again washed three times in 1×PBS containing 0.1% NP40. Nuclear staining for DNA was performed with 0.5 μg/ml of bisbenzimide in PBS for 15 minutes followed by three rinses with PBS.

angiotensin II [AngII, humoral factor which induces the hypertrophic response in cardiomyocytes]
increase in ANF mRNA [1]: 15 fold | cardiomyocyte size and sarcomeric assembly after exposure to agonist [2]: dramatic increase in size and sarcomeric assembly

Source: patent US6673768B1, “Transgenic animal models for cardiac hypertrophy and methods of use thereof (treating)” (Board of Regents, The University of Texas System, priority 1997, dated 2004)
